# Reference: patent publication US6737383B1, “Herbicidal oxadiazolidines” (priority 1999, dated 2004)
# Key:
# [1] = system: bamyardgrass; assay: Test B flood test barnyardgrass; assay type: in vivo, Echinochloa crus-galli
# Procedure, shortened: (§1)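 Plants were grown to the 2-leaf stage before treatment with test chemical, then held in a greenhouse for twelve to sixteen days. Injury was visually rated against untreated controls on a 0–10 scale, where 0 is no effect and 10 is complete control.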
# [2] = system: rice; assay: Test B flood test rice; assay type: in vivo, Oryza sativa
# Procedure, shortened: as §1
# [3] = system: purple nutsedge; assay: Test B pre/postemergence purple nutsedge; assay type: in vivo, Cyperus rotundus
# Procedure, shortened: (§2)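 Response is a visual 0-to-10 score relative to untreated plants, where 0 means no effect and 10 means complete control, taken twelve to sixteen days after application. Treatments went onto soil at planting and onto foliage of 1- to 4-leaf plants, using a surfactant-containing non-phytotoxic solvent.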
# [4] = system: morningglory; assay: Test B pre/postemergence morningglory; assay type: in vivo, Ipomoea hederacea
# Procedure, shortened: as §2
# [5] = system: surinam grass; assay: Test B pre/postemergence surinam grass; assay type: in vivo, Brachiaria decumbens
# Procedure, shortened: as §2
# [6] = system: cocklebur; assay: Test B pre/postemergence cocklebur; assay type: in vivo, Xanthium strumarium
# Procedure, shortened: as §2
# [7] = system: bedstraw; assay: Test B pre/postemergence bedstraw; assay type: in vivo, Galium aparine
# Procedure, shortened: as §2
# [8] = system: velvetleaf; assay: Test B pre/postemergence velvetleaf; assay type: in vivo, Abutilon theophrasti
# Procedure, shortened: as §2
# [9] = system: rape; assay: Test B pre/postemergence rape; assay type: in vivo, Brassica napus
# Procedure, shortened: as §2
# [10] = system: pigweed; assay: Test B pre/postemergence pigweed; assay type: in vivo, Amaranthus retroflexus
# Procedure, shortened: as §2
# [11] = system: sugar beet; assay: Test B pre/postemergence sugar beet; assay type: in vivo, Beta vulgaris
# Procedure, shortened: as §2
# [12] = system: duck salad; assay: Test B flood test duck salad; assay type: in vivo, Heteranthera limosa
# Procedure, shortened: as §1
# [13] = system: giant foxtail; assay: Test B pre/postemergence giant foxtail; assay type: in vivo, Setaria faberii
# Procedure, shortened: as §2
# [14] = system: blackgrass; assay: Test B pre/postemergence blackgrass; assay type: in vivo, Alopecurus myosuroides
# Procedure, shortened: as §2
# [15] = system: corn; assay: Test B pre/postemergence corn; assay type: in vivo, Zea mays
# Procedure, shortened: as §2
# [16] = Rate 62 g/ha, headed Pre-emergence (flood test species), scale 0 to 10 (0 no effect, 10 complete control)
# [17] = Rate 125 g/ha, Pre-emergence, flood test species, scale 0 to 10 where 0 is no effect and 10 is complete control
# [18] = Rate 250 g/ha, headed Pre-emergence (flood test species), scale 0 to 10 (0 no effect, 10 complete control)
# [19] = Rate 500 g/ha, headed Pre-emergence (flood test species), scale 0 to 10 (0 no effect, 10 complete control)
# [20] = Postemergence, Rate 125 g/ha, scale of 0 to 10 where 0 is no effect and 10 is complete control
# [21] = Preemergence, Rate 62 g/ha, scale 0 to 10 (0 no effect, 10 complete control)
# [22] = Preemergence, Rate 125 g/ha, 0 is no effect, 10 is complete control
# [23] = Preemergence, Rate 250 g/ha, scale 0 to 10, 0 is no effect, 10 is complete control
# [24] = Preemergence, Rate 500 g/ha, scale 0 to 10 (0 no effect, 10 complete control)
# [25] = Rate 62 g/ha, Postemergence, scale of 0 to 10 where 0 is no effect and 10 is complete control
# [26] = Rate 250 g/ha, Postemergence, scale 0 to 10, 0 is no effect, 10 is complete control
# [27] = Rate 500 g/ha, Postemergence, scale 0 to 10
structure (smiles),measurement,setting,value
CC(C)N(C(=O)n1oc(=O)n(C(C)C)c1=O)c1ccc(F)cc1 [Compound 131],Barnyardgrass plant response rating,[1]; [16],0
same,Barnyardgrass plant response rating,[1]; [17],0
same,Barnyardgrass plant response rating,[1]; [18],9
same,"Plant response rating, Barnyardgrass",[1]; [19],9
same,Rice plant response rating,[2]; [16],0
same,Rice plant response rating,[2]; [17],0
same,Rice plant response rating,[2]; [18],5
same,"Plant response rating, Rice",[2]; [19],8
same,Nutsedge plant response rating,[3]; [20],0
same,Nutsedge plant response rating,[3]; [21],0
same,Nutsedge plant response rating (0 to 10 scale),[3]; [22],0
same,Nutsedge plant response rating,[3]; [23],0
same,Nutsedge plant response rating,[3]; [24],0
same,Nutsedge plant response rating,[3]; [25],0
same,"Plant response rating, Nutsedge",[3]; [26],0
same,Nutsedge plant response rating,[3]; [27],2
same,Morningglory plant response rating,[4]; [20],7
same,Morningglory plant response rating,[4]; [21],3
same,Morningglory plant response rating (0 to 10 scale),[4]; [22],3
same,Morningglory plant response rating,[4]; [23],5
same,Morningglory plant response rating,[4]; [24],7
same,Morningglory plant response rating,[4]; [25],7
same,"Plant response rating, Morningglory",[4]; [26],8
same,Morningglory plant response rating,[4]; [27],10
same,B. signalgrass plant response rating,[5]; [20],5
same,B. signalgrass plant response rating,[5]; [21],7
same,B. signalgrass plant response rating (0 to 10 scale),[5]; [22],8
same,B. signalgrass plant response rating,[5]; [23],8
same,B. signalgrass plant response rating,[5]; [24],9
same,B. signalgrass plant response rating,[5]; [25],4
same,"Plant response rating, B. signalgrass",[5]; [26],8
same,B. signalgrass plant response rating,"[5]; Rate 500 g/ha, Postemergence, scale of 0 to 10 where 0 is no effect and 10 is complete control",9
same,Cocklebur plant response rating,[6]; [20],3
same,Cocklebur plant response rating,[6]; [21],0
same,Cocklebur plant response rating (0 to 10 scale),[6]; [22],0
same,Cocklebur plant response rating,[6]; [23],2
same,Cocklebur plant response rating,[6]; [24],2
same,Cocklebur plant response rating,[6]; [25],2
same,"Plant response rating, Cocklebur",[6]; [26],5
same,Cocklebur plant response rating,[6]; [27],5
same,Bedstraw plant response rating,[7]; [20],8
same,Bedstraw plant response rating (0 to 10 scale),[7]; [22],10
same,Bedstraw plant response rating,[7]; [23],10
same,Bedstraw plant response rating,[7]; [24],10
same,Bedstraw plant response rating,[7]; [25],7
same,"Plant response rating, Bedstraw",[7]; [26],9
same,Bedstraw plant response rating,"[7]; Rate 500 g/ha, Postemergence, scale 0 to 10, 0 no effect, 10 complete control",9
same,Velvetleaf plant response rating,[8]; [20],7
same,Velvetleaf plant response rating,[8]; [21],7
same,Velvetleaf plant response rating (0 to 10 scale),[8]; [22],8
same,Velvetleaf plant response rating,[8]; [23],9
same,Velvetleaf plant response rating,[8]; [24],10
same,Velvetleaf plant response rating,[8]; [25],0
same,"Plant response rating, Velvetleaf",[8]; [26],8
same,Velvetleaf plant response rating,[8]; [27],8
same,Rape plant response rating,[9]; [20],4
same,Rape plant response rating,[9]; [21],8
same,Rape plant response rating (0 to 10 scale),[9]; [22],10
same,Rape plant response rating,[9]; [23],10
same,Rape plant response rating,[9]; [24],10
same,Rape plant response rating,[9]; [25],1
same,"Plant response rating, Rape",[9]; [26],7
same,Rape plant response rating,[9]; [27],9
same,Redroot pigweed plant response rating,[10]; [20],6
same,Redroot pigweed plant response rating,[10]; [21],7
same,Redroot pigweed plant response rating (0 to 10 scale),[10]; [22],10
same,Redroot pigweed plant response rating,[10]; [23],10
same,Redroot pigweed plant response rating,[10]; [24],10
same,Redroot pigweed plant response rating,[10]; [25],2
same,"Plant response rating, Redroot pigweed",[10]; [26],8
same,Redroot pigweed plant response rating,[10]; [27],10
same,Sugarbeets plant response rating,[11]; [20],3
same,Sugarbeets plant response rating,[11]; [21],7
same,Sugarbeets plant response rating (0 to 10 scale),[11]; [22],8
same,Sugarbeets plant response rating,[11]; [23],10
same,Sugarbeets plant response rating,[11]; [24],10
same,Sugarbeets plant response rating,[11]; [25],2
same,"Plant response rating, Sugarbeets",[11]; [26],6
same,Sugarbeets plant response rating,[11]; [27],8
same,Ducksalad plant response rating,[12]; [16],0
same,Ducksalad plant response rating,[12]; [17],0
same,Ducksalad plant response rating,[12]; [18],7
same,"Plant response rating, Ducksalad",[12]; [19],9
same,Giant foxtail plant response rating,[13]; [20],8
same,Giant foxtail plant response rating,[13]; [21],10
same,Giant foxtail plant response rating (0 to 10 scale),[13]; [22],10
same,Giant foxtail plant response rating,[13]; [23],10
same,Giant foxtail plant response rating,[13]; [24],10
same,Giant foxtail plant response rating,[13]; [25],8
same,"Plant response rating, Giant foxtail",[13]; [26],9
same,Giant foxtail plant response rating,[13]; [27],9
same,Blackgrass plant response rating,[14]; [20],8
same,Blackgrass plant response rating,[14]; [21],10
same,Blackgrass plant response rating (0 to 10 scale),[14]; [22],10
same,Blackgrass plant response rating,[14]; [23],10
same,Blackgrass plant response rating,[14]; [24],10
same,Blackgrass plant response rating,[14]; [25],8
same,"Plant response rating, Blackgrass",[14]; [26],8
same,Blackgrass plant response rating,[14]; [27],9
same,Corn plant response rating,[15]; [20],5
same,Corn plant response rating,[15]; [21],0
same,Corn plant response rating (0 to 10 scale),[15]; [22],5
same,Corn plant response rating,[15]; [23],9
same,Corn plant response rating,[15]; [24],10
same,Corn plant response rating,[15]; [25],3
same,"Plant response rating, Corn",[15]; [26],6
same,Corn plant response rating,[15]; [27],7
